{"source": "patent US5030733A", "about": "“Hydroxy-, alkoxy- and benzyloxy-substituted phospholipids” (Hoechst-Roussel Pharmaceticals Incorporated, priority 1989, dated 1991)", "tested_on": "phenyl-para-quinone induced writhing", "assay": "phenyl-para-quinone (PQW) writhing assay for analgesia", "format": "in vivo", "conditions": "Mus musculus, sc; 50% inhibition of writhing, s.c., mice; read-out: ED50 (subcutaneous dose at which 50% of the phenyl-para-quinone induced writhing is inhibited)", "description": "The compounds of the present invention are also useful as analgesic agents due to their ability to alleviate pain in mammals. […] Exptl. Biol. Med., 95, 729 (1957)]. Presented in Table 2 is the analgesic effect of some of the compounds of the invention expressed as either the subcutaneous dose at which 50% of the phenyl-para-quinone induced writhing is inhibited in the animals, i.e., the ED50 value, or as the % decrease in writhing at a give dose.", "data": [{"compound": "CCC(=O)O[C@](Cc1ccccc1)(c1ccccc1)[C@H](C)CN(C)C", "note": "[Propoxyphene]", "values": [{"measurement": "ED50", "result": 3.9, "unit": "mg/kg"}]}]}
